Data set [1] deals with mice. The data set can be described thus: Hot plate assay for antinociception, subcutaneous dosing. As to conditions: for ED50: 0.5 h, re-tested 30 min after drug administration; for ED50 / analgesic effect in the mouse hot plate assay compared to morphine: SC. In kind it is in vivo, mouse. As for the experimental part:
The hot plate assay is adapted from the procedure originally described by O'Callaghan and Holtzman (JPET, 192, 497, 1975) and is commonly used to determine the potential analgesic efficacy of opioid agonists. The antinociceptive effect of the composition(s) described herein in the hot plate is expressed in % MPE (Maximum Possible Effect).
Rats (175-250 g) or mice (20-30 g) acclimated to the vivarium for at least 48 hr prior to behavioral testing. Test drugs were administered by the subcutaneous (SC) route. Animals were placed on the hot plate, which the temperature was set at 50-56° C., depending on the in vitro potency of the compound. A cutoff time of 30-60 seconds was used depending on the temperature of the hot plate so that the paws of the animal displaying analgesia, was not damaged by the heat stimulus. The cutoff time was considered a 100% response to the thermal insult. Prior to drug treatment, each animal was tested to determine the baseline response. Thirty minutes after drug administration, animals were re-tested. Dose response experiments were performed to evaluate the potency of the test compound when various doses were administered at the point when maximal analgesia is observed.
The % MPE was calculated according to the following formula:
% MPE=[(Post drug latency−baseline latency)/(60 or 30−baseline latency)]×100
ED50 values were calculated from the mean % MPE values for each group using log dose-response curves by least-squares regression analysis.
In general terms: Thermal pain tests record how soon the animal reacts.

The target of data set [2] is T1, CYP3A4 (Homo sapiens, UniProt P08684).
T1 construct: incubations of test compound (1 μM) with human liver microsomes (0.25 mg/mL); from tissue; host or cells: human liver microsomes
T1 sequence (P08684 whole entry): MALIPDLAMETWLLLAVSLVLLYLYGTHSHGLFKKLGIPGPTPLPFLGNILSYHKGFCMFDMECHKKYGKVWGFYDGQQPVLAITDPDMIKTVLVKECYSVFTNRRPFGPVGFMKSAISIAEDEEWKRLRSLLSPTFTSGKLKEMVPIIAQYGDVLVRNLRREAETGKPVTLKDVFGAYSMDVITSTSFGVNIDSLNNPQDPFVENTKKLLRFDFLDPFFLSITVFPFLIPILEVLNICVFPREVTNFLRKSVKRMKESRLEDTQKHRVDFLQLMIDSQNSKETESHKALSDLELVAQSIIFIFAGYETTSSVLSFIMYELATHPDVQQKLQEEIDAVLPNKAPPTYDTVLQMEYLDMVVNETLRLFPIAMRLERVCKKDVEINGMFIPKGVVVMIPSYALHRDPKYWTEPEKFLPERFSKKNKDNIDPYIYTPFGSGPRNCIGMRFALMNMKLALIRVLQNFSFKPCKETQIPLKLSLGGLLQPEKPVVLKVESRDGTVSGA
Briefly: Metabolic stability in human liver microsomes with/without troleandomycin: percent contribution of CYP3A4. Type of data set: in vitro ADME. To be noted: human liver microsomes 0.25 mg/mL, test compound 1 μM, troleandomycin 50 μM; from intrinsic clearance without and with inhibitor. As for the experimental part:
(§1) Compounds 141, 208, 246, 265, 267, 271 or 277 were analyzed to determine whether they are metabolized by CYP2D6 and/and/or CYP3A4. The studies were designed to evaluate the metabolic stability of compounds in human liver microsomes for the purpose of determining the percent contribution of CYP2D6 and CYP3A4 to their in vitro metabolism. […] Incubations are performed with or without CYP specific inhibitors. Incubations with the CYP2D6 direct inhibitor, quinidine (1 μM) quantify the percent contribution of CYP2D6 to metabolism. Incubations with the CYP3A4 metabolism-dependent inhibitor, troleandomycin (50 μM), define the percent contribution of CYP3A4. The percentage of CYP2D6 and CYP3A4 contribution is calculated using intrinsic clearance values in the absence and presence of the specific CYP inhibitor (Gibbs et al. 2006).
(In general: Liver microsomes are a subcellular fraction often used to study metabolism.)

Data set [3] addresses T2, CYP2D6 (Homo sapiens, UniProt P10635).
T2 construct: incubations of test compound (1 μM) with human liver microsomes (0.25 mg/mL); from tissue; host or cells: human liver microsomes
The data set can be described thus: Metabolic stability in human liver microsomes with/without quinidine: percent contribution of CYP2D6. In kind it is in vitro ADME. As to conditions: human liver microsomes 0.25 mg/mL, test compound 1 μM, quinidine 1 μM; from intrinsic clearance without and with inhibitor. How it is done:
as §1

The nature of data set [4]: Oral availability in humans with low versus normal CYP2D6 activity. Type of data set: in vivo. To be noted: human with low CYP2D6 activity compared to humans with normal CYP2D6 activity (data not shown).

In general, ED50 refers to the dose at which the effect has come halfway, by size or by number of responders.

T2 sequence (P10635 whole entry): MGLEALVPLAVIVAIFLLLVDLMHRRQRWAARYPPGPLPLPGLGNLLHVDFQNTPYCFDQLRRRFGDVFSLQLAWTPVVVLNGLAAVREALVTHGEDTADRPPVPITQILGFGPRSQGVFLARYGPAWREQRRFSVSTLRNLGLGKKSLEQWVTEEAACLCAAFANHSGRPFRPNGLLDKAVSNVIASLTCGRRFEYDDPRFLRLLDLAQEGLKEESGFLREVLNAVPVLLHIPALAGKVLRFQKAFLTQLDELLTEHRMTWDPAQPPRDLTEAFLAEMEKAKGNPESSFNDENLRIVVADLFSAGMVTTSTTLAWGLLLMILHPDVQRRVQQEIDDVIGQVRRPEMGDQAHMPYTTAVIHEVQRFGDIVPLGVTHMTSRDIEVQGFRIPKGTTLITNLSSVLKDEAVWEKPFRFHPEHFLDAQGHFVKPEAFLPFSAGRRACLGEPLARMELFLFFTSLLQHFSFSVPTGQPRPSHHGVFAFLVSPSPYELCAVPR

Compound `Cc1ccc(CNCC[C@@]2(c3ccc(F)cc3)CCOC3(CCCC3)C2)s1` [Compound 145] showed an ED50 in data set [1] (mouse hot plate) of 5.9 mg/kg.

In turn, `Fc1cncc(CNCC[C@@]2(c3ccccn3)CCOC3(CCCC3)C2)c1` [Compound 265] displayed a CYP3A4 contribution in data set [2] of more than 50%.

On to `FC(F)(F)c1ccnc(CNCC[C@@]2(c3ccccn3)CCOC3(CCCC3)C2)c1` [Compound 277], for which, in data set [3], the CYP2D6 contribution is recorded as more than 20%. In data set [2], this compound gave a CYP3A4 contribution of more than 50%.

In turn, `c1ccc(CNCC[C@@]2(c3ccccn3)CCOC3(CCCC3)C2)cc1` [Compound 28] came in with an ED50 in data set [1] (mouse hot plate) of 1.2 mg/kg. Moreover, the “analgesic effect in the mouse hot plate assay compared to morphine” value in data set [1] is listed as “more robust analgesic effect”.

`Fc1ccc([C@]2(CCNCc3ccccc3)CCOC3(CCCC3)C2)cc1` [Compound 81, benzyl({2-[(9R)-9-(4-fluorophenyl)-6-oxaspiro[4.5]decan-9-yl]ethyl})amine]: in data set [1] (mouse hot plate, at 10 mg/kg SC), the “% MPE” value came to 100% at 10.

The compound `Cc1cccc(CNCC[C@@]2(c3ccccn3)CCOC3(CCCC3)C2)c1` [Compound 246] had a CYP2D6 contribution in data set [3] of 80%. In data set [2], the CYP3A4 contribution is recorded as 25%.

`FC(F)(F)c1cncc(CNCC[C@@]2(c3ccccn3)CCOC3(CCCC3)C2)c1` [Compound 271]: the CYP2D6 contribution in data set [3] is reported as 3%. In data set [2], this compound returned a CYP3A4 contribution of 45%.

Regarding `Brc1csc(CNCC[C@@]2(c3ccccn3)CCOC3(CCCC3)C2)c1` [Compound 208], the CYP2D6 contribution in data set [3] was 3%. In data set [2], this compound displayed a CYP3A4 contribution of 17%.

`CN1CC[C@]23c4c5ccc(O)c4O[C@H]2[C@@H](O)C=C[C@H]3[C@H]1C5` [Morphine, reference compound] registered an ED50 in data set [1] (mouse hot plate) of 3.8 mg/kg. Moreover, the “efficacy in the mouse hot plate” value in data set [1] (at a dose of 10 mg/kg SC) is “full efficacy”.

`Clc1cncc(CNCC[C@@]2(c3ccccn3)CCOC3(CCCC3)C2)c1` [Compound 267] had a CYP2D6 contribution in data set [3] of 8%. The compound also registered a CYP3A4 contribution in data set [2] of 55%.

In data set [1] (mouse hot plate), `Cc1cccc(CNCC[C@@]2(c3ccc(F)cc3)CCOC3(CCCC3)C2)c1` [Compound 122, {2-[(9R)-9-(4-fluorophenyl)-6-oxaspiro[4.5]decan-9-yl]ethyl}[(3-methylphenyl)methyl]amine] came in with a median effective dose (ED50) of 1.1 mg/kg. The “analgesic effect in the mouse hot plate assay compared to morphine” value in data set [1] was “more robust analgesic effect”.

Compound `COc1ccsc1CNCC[C@@]1(c2ccccn2)CCOC2(CCCC2)C1` [Compound 140, [(3-methoxythiophen-2-yl)methyl]({2-[(9R)-9-(pyridin-2-yl)-6-oxaspiro[4.5]decan-9-yl]ethyl})amine] showed a CYP2D6 contribution in data set [3] of 50%. Besides, in data set [4], the oral availability entry is recorded as “substantially higher oral availability”. The same compound returned a CYP3A4 contribution in data set [2] of 50%.

These data come from US20190008803A1, “COMBINATIONS OF OPIOID RECEPTOR LIGANDS AND CYTOCHROME P450 INHIBITORS” (TREVENA, INC., priority 2015, published 2019).
